# Literature values in patent US7985733B1, “Buffer-based method for preparing bivalirudin drug product” (The Medicines Company, priority 2010, dated 2011).
# Tests used:
# [1] = 25° C.
# [2] = pH at which the molecule carries no net charge
# [3] = statement of CN 101244043
molecule,measurement,setting,value
"O=S(=O)(O)CCN1CCN(CCS(=O)(=O)O)CC1 [Piperazine-1,4-bis(2-ethanesulfonic acid)]",pKa,[1],6.8
Maleate,pKa (pK1),[1],2.0
same,pKa (pK2),[1],6.2
"CC[C@H](C)[C@H](NC(=O)[C@H](CCC(=O)O)NC(=O)[C@H](CCC(=O)O)NC(=O)[C@H](Cc1ccccc1)NC(=O)[C@H](CC(=O)O)NC(=O)CNC(=O)[C@H](CC(N)=O)NC(=O)CNC(=O)CNC(=O)CNC(=O)CNC(=O)[C@@H]1CCCN1C(=O)[C@H](CCCNC(=N)N)NC(=O)[C@@H]1CCCN1C(=O)[C@H](N)Cc1ccccc1)C(=O)N1CCC[C@H]1C(=O)N[C@@H](CCC(=O)O)C(=O)N[C@@H](CCC(=O)O)C(=O)N[C@@H](Cc1ccc(O)cc1)C(=O)N[C@@H](CC(C)C)C(=O)O [bivalirudin, D-Phenylalanyl-L-Prolyl-L-Arginyl-L-Prolyl-Glycyl-Glycyl-Glycyl-Glycyl-L-Asparagyl-Glycyl-L-Aspartyl-L-Phenylalanyl-L-Glutamyl-L-Glutamyl-L-Isoleucyl-L-Prolyl-L-Glutamyl-L-Glutamyl-L-Tyrosyl-L-Leucine]",isoelectric point (pI),[2],about 3.6
same,solubility in water,[3],easily soluble in water
